Reference: patent US4529549A, “Spergualin-related compounds and process for the preparation thereof” (Zaidan Hojin Biseibutsu Kagaku Kenkyu Kai, priority 1982, dated 1985)
≈ marks a conversion by molar mass, not a printed value. Where a name gives a salt, the structure may show the parent alone. Read-outs that look alike come from different tables or passages of the source.

Assays:
[1] = tested on: mouse leukemia L1210 cells; experiment: In vitro proliferation-inhibiting action on mouse leukemia L1210 cells; format: cell-based; conditions: 48 hours at 37° C.
Experimental: Leukemia L1210 cells (1×10^5 /0.2 ml) were transplanted to female DBA/2 mice intraperitoneally. four days later, the ascitic fluid was collected and centrifuged to obtain proliferated L1210 cells. The L1210 cells collected were added to RPMI1640 medium containing bovine fetal serum and 2-mercaptoethanol, to obtain a suspension of L1210 cells having a final concentration of 5×10^4 cells/0.9 ml. Each of the compounds of this invention was dissolved in said culture medium to prepare solutions with final concentrations ranging from 0.062 to 100 μg/ml. 0.9 ml of the L1210 cell suspension and 0.1 ml of each test solution were mixed in petri dishes, and incubated for 48 hours at 37° C. in an incubator under an atmosphere of carbon dioxide gas. The number of L1210 cells was counted before and after the incubation, and that concentration of the compound which inhibited the proliferation of L1210 cells by 50% of the control's proliferation was determined (IC50).

[2] = Stability of the compounds in aqueous solutions (HPLC residual content); format: physicochemical; conditions: for remaining at 12 h / remaining at 24 h / remaining at 48 h / remaining at 72 h / remaining at 120 h / remaining at 168 h: water; for Residual content (%) of the compound in an aqueous solution: 0.5 (w/w)% in water, 40°±1° C., initial content = 100%
Experimental: Each of the compounds of this invention was dissolved in water to a concentration of 0.5 (w/w)%. The aqueous solution was maintained at 40°±1° C., and sampled at certain time intervals. Each sample was subjected to high-performance liquid chromatographic analysis to measure the area of the peak of the compound at each sampling time, and to calculate the ratio of the area of the peak after the indicated period of time to that at the first sampling time. The results of the calculation were used to determine the contents (%) of the compound of this invention in the aqueous solution after the indicated periods of time, with the initial content of said compound set at 100%.

Bacillus subtilis PCI219 = experiment: Growth-inhibiting action on Bacillus subtilis (agar plate MIC); format: cell-based; conditions: nutrient agar, 20 hours at 37° C.
Experimental: Each of the compounds of this invention was dissolved in nutrient agar media to final concentrations of 100, 50, 25, 12.5, 6.25, 3.13 and 1.56 μg/ml, to prepare agar plates for testing. Bacillus subtilis PCI219 was adjusted to a content of 1×10^6 viable cells/ml, in a culture broth, and a loopful of the broth was applied onto the agar plates. The plates were incubated for 20 hours at 37° C. under stationary conditions, and observed for the formation of colonies of Bacillus subtilis. The lowest of the concentrations at which no colonies were formed was taken to be minimum inhibitory concentration (MIC).

[3] = Bacillus subtilis, PCI219, read-out: MIC

| Compound | IC50 [1] [µg/mL] | remaining at 12 h [2] [%] | remaining at 24 h [2] [%] | remaining at 48 h [2] [%] | remaining at 72 h [2] [%] | remaining at 120 h [2] [%] | remaining at 168 h [2] [%] | MIC (Bacillus subtilis PCI219; [3]) [µg/mL] | Residual content (%) of the compound in an aqueous solution ([2]; 12 hr) [%] | Residual content (%) of the compound in an aqueous solution ([2]; 24 hr) [%] | Residual content (%) of the compound in an aqueous solution ([2]; 48 hr) [%] | Residual content (%) of the compound in an aqueous solution ([2]; 72 hr) [%] | Residual content (%) of the compound in an aqueous solution ([2]; 120 hr) [%] | Residual content (%) of the compound in an aqueous solution ([2]; 168 hr) [%] | MIC (Bacillus subtilis PCI219) [µg/mL] |
| --- | --- | --- | --- | --- | --- | --- | --- | --- | --- | --- | --- | --- | --- | --- | --- |
| N=C(N)NCCCCCCCCC(=O)N[C@@H](CO)C(=O)NCCCCNCCCN [Compound 17, 10-[N--(9-guanidinononanoyl)-L-seryl]-1,5,10-triazadecane trihydrochloride] | 11.3 | 99.6 | 100 | 99.8 | 99.7 | 100 | 99.3 | 6.25 |  |  |  |  |  |  |  |
| N=C(N)NCCCC[C@H](O)CC(=O)N[C@@H](CO)C(=O)NCCCCNCCCN [Compound 3, 10-[N--(7-guanidino-3(S)--hydroxyheptanoyl)-L-seryl]-1,5,10-triazadecane trihydrochloride] | 0.95 | 99.3 | 99.5 | 100 | 99.6 | 99.7 | 100 | 6.25 |  |  |  |  |  |  |  |
| Cl.Cl.Cl.N=C(N)NCCCCCCC(=O)N[C@@H](CCC(N)=O)C(=O)NCCCCNCCCN [Compound 11, 10-[N--(7-guanidinoheptanoyl)-L-glutaminyl]-1,5,10-triazadecane trihydrochloride] |  |  |  |  |  |  |  |  | 99.5 | 99.7 | 101 | 99.5 | 100 | 99.3 | > 100 |
| CC(=O)O[C@@H](CCCCNC(=N)N)CC(=O)NCC(=O)NCCCCNCCCN [Compound 16, 10-[N--(7-guanidino-3(S)--acetoxyheptanoyl)-glycyl-1,5,10-triazadecanetrihydrochloride] |  | 99.9 | 99.5 | 99.6 | 99.2 | 99.6 | 99.6 | > 100 |  |  |  |  |  |  |  |
| CC(C)C[C@H](NC(=O)CCCCCCNC(=N)N)C(=O)NCCCCNCCCN [Compound 9, 10-[N--(7-guanidinoheptanoyl)-L-leucyl]-1,5,10-triazadecane trihydrochloride] | 70 | 99.7 | 99.9 | 99.8 | 100 | 100 | 99.9 | > 100 |  |  |  |  |  |  |  |
| N=C(N)NCCCCCCC(=O)NCCC(=O)NCCCCNCCCN [Compound 6, 10-[N--(7-guanidinoheptanoyl)-β-alanyl]-1,5,10-triazadecane trihydrochloride] | 0.84 | 100 | 100 | 99.6 | 99.6 | 99.9 | 100 | 25 |  |  |  |  |  |  |  |
| C[C@H](NC(=O)CCCCCCNC(=N)N)C(=O)NCCCCNCCCN [Compound 5, 10-[N--(7-guanidinoheptanoyl)-L-alanyl]-1,5,10-triazadecane trihydrochloride] | 37 | 99.8 | 99.8 | 100 | 99.6 | 99 | 99.9 | 25 |  |  |  |  |  |  |  |
| N=C(N)NCCCCCCC(=O)N[C@@H](Cc1cnc[nH]1)C(=O)NCCCCNCCCN [Compound 14, 10-[N--(7-guanidinoheptanoyl)-L-histidyl]-1,5,10-triazadecane trihydrochloride] | 51 | 99.1 | 99 | 99.6 | 99.5 | 99.9 | 99.6 | 50 |  |  |  |  |  |  |  |
| N=C(N)NCCCCCCC(=O)NCCCC(=O)NCCCCNCCCN [Compound 7, 10-[N--(7-guanidinoheptanoyl)-γ-aminobutanoyl]-1,5,10-triazadecane trihydrochloride] | 1.9 | 99.9 | 100 | 99.8 | 99.9 | 100 | 99.8 | 25 |  |  |  |  |  |  |  |
| C[C@@H](O)[C@H](NC(=O)CCCCCCNC(=N)N)C(=O)NCCCCNCCCN [Compound 15, 10-[N--(7-guanidinoheptanoyl)-L-threonyl]-1,5,10-triazadecane trihydrochloride] | 180 | 99.2 | 99.8 | 99.1 | 100 | 99.6 | 100 | 100 |  |  |  |  |  |  |  |
| N=C(N)NCCCCCCC(=O)N[C@@H](CCCNC(=N)N)C(=O)NCCCCNCCCN [Compound 12, 10-[N--(7-guanidinoheptanoyl)-L-arginyl]-1,5,10-triazadecane trihydrochloride] | 1.5 | 100 | 99.4 | 99.7 | 99.9 | 100 | 99.7 | 12.5 |  |  |  |  |  |  |  |
| N=C(N)NCCCCCCC(=O)N[C@@H](CC(=O)O)C(=O)NCCCCNCCCN [Compound 10, 10-[N--(7-guanidinoheptanoyl)-L-asparthyl]-1,5,10-triazadecane trihydrochloride] | 130 | 99.9 | 99.4 | 99.8 | 100 | 99.8 | 99.9 | > 100 |  |  |  |  |  |  |  |
| N=C(N)NCCCCCCC(=O)N[C@@H](Cc1ccccc1)C(=O)NCCCCNCCCN [Compound 13, 10-[N--(7-guanidinoheptanoyl)-L-phenylalanyl]-1,5,10-triazadecane trihydrochloride] | 2.8 | 99.8 | 99.5 | 99.9 | 100 | 101 | 100 | > 100 |  |  |  |  |  |  |  |
| N=C(N)NCCCCCCC(=O)N1CCC[C@H]1C(=O)NCCCCNCCCN [Compound 8, 10-[N--(7-guanidinoheptanoyl)-L-prolyl]-1,5,10-triazadecane trihydrochloride] |  | 100 | 100 | 99.6 | 99.8 | 99.8 | 100 | > 100 |  |  |  |  |  |  |  |
| N=C(N)NCCCCCCC(=O)NC(CCO)C(=O)NCCCCNCCCN (racemic) [Compound 18] | 150 (≈ 361 µM) | 100 | 99.5 | 99.7 | 99.3 | 99.7 | 99.5 | 100 (≈ 241 µM) |  |  |  |  |  |  |  |
| N=C(N)NCCCCCCC(=O)N[C@H](CO)C(=O)NCCCCNCCCN [Compound 4, 10-[N--(7-guanidinoheptanoyl)-D-seryl]-1,5,10-triazadecane trihydrochloride] | 3.6 | 101 | 100 | 100 | 99.7 | 99.6 | 100 | 12.5 |  |  |  |  |  |  |  |
